Each structure is given as a SMILES string.

Sequence of Bcl-2-like protein 1 (Q07817 whole entry): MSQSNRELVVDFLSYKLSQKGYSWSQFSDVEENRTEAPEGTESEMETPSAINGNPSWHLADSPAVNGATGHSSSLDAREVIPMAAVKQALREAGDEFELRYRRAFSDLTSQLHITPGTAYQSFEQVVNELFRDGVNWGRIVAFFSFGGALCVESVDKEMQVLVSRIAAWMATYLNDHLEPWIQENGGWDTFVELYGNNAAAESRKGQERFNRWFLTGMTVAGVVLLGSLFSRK

One test addresses Bcl-2-like protein 1 (Homo sapiens, UniProt Q07817). Description: Fluorescence Polarization Assay.
Details: not given
The protocol: Fluorescence polarization experiments were conducted on a Photon Technology International instrument using a 0.3 cm path length cuvette. Spectra were measured at 25 deg C using 10.0 nm slit widths. Excitation at 495 nm was used for the fluorescein-containing peptide Fl-Bak and the emission maximum at 535 nm was monitored. Polarization measurements were recorded upon titration of inhibitors at varying concentrations into a solution of Fl-Bak and Bcl-xL.
(In fluorescence polarisation assays a small probe gives low polarisation when free and higher when bound to something large.)
With `CC(C)C[C@H](NC(=O)c1ccc(C(=O)N(CC(C)C)[C@H](C(=O)O)C(C)C)cc1OC(C)C)C(=O)O` [terephthalamide scaffold, 47], the inhibition constant (Ki) (as a rule, a measure of affinity in units of concentration, obtained from inhibition or displacement) amounted to 450 µM.

The compound `CC(C)C[C@H](NC(=O)c1ccc(C(=O)N[C@@H](CC(C)C)C(=O)O)c(Oc2ccc3ccccc3c2)c1)C(=O)O` [terephthalamide scaffold, 50] had an inhibitory constant (Ki) of 82.1 µM.

The test is the same for the next values; noted with them: pH 7.4; 25 °C.
With `COC(=O)[C@H](CC(C)C)NC(=O)c1ccc(C(=O)N(C(C)C)C(C)C)cc1Oc1ccc([N+](=O)[O-])cc1` [terephthalamide scaffold, 32], the Ki was 13.2 µM.

With `CC(C)C[C@H](NC(=O)c1ccc(C(=O)N(C(C)C)C(C)C)cc1Oc1ccc2ccccc2c1)C(=O)O` [terephthalamide scaffold, 31], the Ki was found to be 7.63 µM.

`COc1cc(C(=O)N(C(C)C)C(C)C)ccc1C(=O)N[C@@H](CC(C)C)C(=O)O` [terephthalamide scaffold, 28] showed a Ki of 2.31 µM.

In turn, `COC(=O)[C@H](Cc1ccccc1)NC(=O)c1ccc(C(=O)N(C(C)C)C(C)C)cc1OC(C)C` [terephthalamide scaffold, 25] came in with a Ki of 10.9 µM.

For `COC(=O)[C@H](CC(C)C)NC(=O)c1ccc(C(=O)N(C)C)cc1OC(C)C` [terephthalamide scaffold, 34], the Ki stood at 3.14 µM.

Values taken from BindingDB's records for doi:10.1021/ja0446404 (Yale University, 2005).
